The conditions of data set [1]: cited from earlier work.
The nature of data set [2]: residual penicillin G in the udder of a treated dry cow over 30 days. The data set is classed as in vivo. Conditions: for Residual Benzathine Penicillin G In The Udder: 500,000 units of the composition of Example 1; for Residual Procaine Penicillin G In The Udder: dosage of 500,000 u.
For data set [3] the following is noted: high concentration product, e.g. 1,000,000 units procaine penicillin G and 1,000 milligrams dihydrostreptomycin; in some cases; cited from earlier work.

Values after ≈ are worked out from the molar mass of the structure shown.

As for `CC1(C)S[C@@H]2[C@H](NC(=O)Cc3ccccc3)C(=O)N2[C@H]1C(=O)O` [Benzathine Penicillin G, N, N dibenzyl ethylene diamine di benzyl penicillinate], the solubility in water in data set [1] (water) is 500 µg/mL (≈ 1500 µM). Further, the “Residual Benzathine Penicillin G In The Udder” value in data set [2] (day 8 past treatment) is reported as 5.37 u/ml; in data set [2] (day 10 past treatment), 3.67 u/ml; in data set [2] (day 12 past treatment) it was 4 u/ml; in data set [2] (day 16 past treatment) it was 3.57 u/ml; in data set [2] (day 23 past treatment), 2.2 u/ml; in data set [2] (day 30 past treatment) it was 0.11 u/ml. In data set [2] (over the extended 30 day treatment), the “amount remaining for effectively treating mastitis, compared with procaine penicillin” value is on record as “substantially greater”.

As to `CC1(C)S[C@@H]2[C@H](NC(=O)Cc3ccccc3)C(=O)N2[C@H]1C(=O)O` [Procaine Penicillin G], the “desired residual effects remain in the udder of a treated cow” value in data set [3] is reported as “only a few days”. Besides, the “solubility (in words)” value in data set [1] (compared with limited solubility penicillin) is “greater solubility”. In addition, in data set [2] (after the 8th day), the “dissipation of procaine penicillin” value was “rapidly dissipated”. Besides, the “initial amount of procaine penicillin remaining, compared with benzathine penicillin G” value in data set [2] (at the 8th day) is given as “higher”. In data set [2] (by the tenth day), the “amount of procaine penicillin remaining relative to remaining benzathine penicillin G” value is recorded as “less than half”. Besides, the “Residual Procaine Penicillin G In The Udder” value is 7.68 u/ml in data set [2] (day 8 past treatment); 1.56 u/ml in data set [2] (day 10 past treatment); “.21 u/ml” in data set [2] (day 12 past treatment); “less than 0.01 u/ml” in data set [2] (day 16 past treatment, not detectable); “less than 0.01 u/ml” in data set [2] (day 23 past treatment, not detectable); “less than 0.01 u/ml” in data set [2] (day 30 past treatment, not detectable).

The record behind these values is patent US4172138A, “Method and composition of matter for the treatment of dry cows for mastitis” (priority 1977, dated 1979).
